Laboratory results: patent US11572590B2, “Methods for evaluating tumor cell spheroids using 3D microfluidic cell culture device” (Dana-Farber Cancer Institute, Inc., priority 2017, dated 2023)
Like-named read-outs stand apart in the source and are kept apart here.

Assays:
Test in all cases: SelectScreen Kinase Profiling, single point inhibition and IC50 for off-target kinases
Format in all cases: biochemical
off-target kinases [1] = molecular target: T1, off-target kinases (Homo sapiens, UniProt Q13976); conditions: PRKG1, ZLYTE, ATP Km app
T1 sequence (Q13976 1-671): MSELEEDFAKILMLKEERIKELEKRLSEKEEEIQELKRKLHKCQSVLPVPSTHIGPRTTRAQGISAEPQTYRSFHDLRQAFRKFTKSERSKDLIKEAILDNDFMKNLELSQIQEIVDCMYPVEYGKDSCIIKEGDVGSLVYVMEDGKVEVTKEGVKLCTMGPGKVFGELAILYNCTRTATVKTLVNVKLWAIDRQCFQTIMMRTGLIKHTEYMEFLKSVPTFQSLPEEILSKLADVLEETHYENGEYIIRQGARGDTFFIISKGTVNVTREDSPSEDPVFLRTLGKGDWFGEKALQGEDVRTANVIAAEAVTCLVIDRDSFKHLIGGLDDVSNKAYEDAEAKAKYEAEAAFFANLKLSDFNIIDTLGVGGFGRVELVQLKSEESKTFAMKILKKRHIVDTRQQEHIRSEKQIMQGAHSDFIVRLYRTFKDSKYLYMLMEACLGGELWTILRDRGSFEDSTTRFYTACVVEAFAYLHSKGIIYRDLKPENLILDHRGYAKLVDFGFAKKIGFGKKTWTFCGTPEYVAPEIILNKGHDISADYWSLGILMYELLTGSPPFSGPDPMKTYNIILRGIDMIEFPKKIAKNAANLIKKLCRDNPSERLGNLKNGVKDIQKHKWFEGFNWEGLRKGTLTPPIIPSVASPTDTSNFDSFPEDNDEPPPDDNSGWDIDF

off-target kinases [2] = molecular target: off-target kinases (Homo sapiens, UniProt P45983); conditions: MAPK8 (JNK1)
off-target kinases [3] = molecular target: off-target kinases (Homo sapiens, UniProt Q9P286); conditions: PAK7 (KIAA1264), ATP Km app, ZLYTE
off-target kinases [4] = molecular target: T2, off-target kinases (Homo sapiens, UniProt P43403); conditions: ZAP70, ZLYTE, ATP Km app
T2 sequence (P43403 1-619): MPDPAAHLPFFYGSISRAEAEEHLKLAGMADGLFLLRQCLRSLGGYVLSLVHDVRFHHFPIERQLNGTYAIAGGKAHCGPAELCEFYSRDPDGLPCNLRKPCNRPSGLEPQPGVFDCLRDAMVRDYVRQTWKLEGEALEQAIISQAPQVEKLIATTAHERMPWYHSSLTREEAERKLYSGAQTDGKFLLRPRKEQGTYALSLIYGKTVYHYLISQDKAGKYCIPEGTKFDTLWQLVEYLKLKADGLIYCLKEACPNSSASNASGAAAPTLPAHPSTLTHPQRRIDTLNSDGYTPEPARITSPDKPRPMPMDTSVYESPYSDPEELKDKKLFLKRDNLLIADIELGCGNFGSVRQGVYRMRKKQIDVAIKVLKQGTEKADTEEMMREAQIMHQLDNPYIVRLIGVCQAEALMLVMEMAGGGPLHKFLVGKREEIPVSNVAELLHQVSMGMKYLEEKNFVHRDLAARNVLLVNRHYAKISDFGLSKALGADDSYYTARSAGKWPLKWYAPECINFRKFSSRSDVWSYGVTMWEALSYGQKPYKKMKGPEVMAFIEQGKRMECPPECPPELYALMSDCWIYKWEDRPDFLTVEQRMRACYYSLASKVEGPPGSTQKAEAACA

off-target kinases [5] = molecular target: off-target kinases (Homo sapiens, UniProt O75582); conditions: RPS6KA5 (MSK1), ZLYTE, ATP Km app
off-target kinases [6] = molecular target: off-target kinases (Homo sapiens, UniProt Q96RR4); conditions: CAMKK2 (CaMKK beta), LanthaScreen Binding
Sequence of off-target kinases (Homo sapiens, UniProt Q96RR4) (Q96RR4 whole entry): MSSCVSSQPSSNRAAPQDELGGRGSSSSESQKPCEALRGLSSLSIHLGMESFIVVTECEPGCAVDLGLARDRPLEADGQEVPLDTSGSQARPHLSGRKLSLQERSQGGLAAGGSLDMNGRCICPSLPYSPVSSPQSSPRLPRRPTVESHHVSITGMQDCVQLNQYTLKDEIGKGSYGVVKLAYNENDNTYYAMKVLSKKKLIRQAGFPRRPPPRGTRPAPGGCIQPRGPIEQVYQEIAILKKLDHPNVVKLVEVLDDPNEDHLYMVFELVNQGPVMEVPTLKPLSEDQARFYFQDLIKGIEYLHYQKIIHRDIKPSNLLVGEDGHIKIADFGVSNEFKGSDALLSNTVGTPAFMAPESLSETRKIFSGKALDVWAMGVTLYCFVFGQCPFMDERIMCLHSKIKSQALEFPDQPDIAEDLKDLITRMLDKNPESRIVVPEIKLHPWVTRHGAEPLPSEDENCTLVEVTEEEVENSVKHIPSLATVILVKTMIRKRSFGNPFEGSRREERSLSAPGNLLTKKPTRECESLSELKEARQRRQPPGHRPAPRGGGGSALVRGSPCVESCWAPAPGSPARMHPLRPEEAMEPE

Sequence of off-target kinases (Homo sapiens, UniProt Q9P286) (Q9P286 whole entry): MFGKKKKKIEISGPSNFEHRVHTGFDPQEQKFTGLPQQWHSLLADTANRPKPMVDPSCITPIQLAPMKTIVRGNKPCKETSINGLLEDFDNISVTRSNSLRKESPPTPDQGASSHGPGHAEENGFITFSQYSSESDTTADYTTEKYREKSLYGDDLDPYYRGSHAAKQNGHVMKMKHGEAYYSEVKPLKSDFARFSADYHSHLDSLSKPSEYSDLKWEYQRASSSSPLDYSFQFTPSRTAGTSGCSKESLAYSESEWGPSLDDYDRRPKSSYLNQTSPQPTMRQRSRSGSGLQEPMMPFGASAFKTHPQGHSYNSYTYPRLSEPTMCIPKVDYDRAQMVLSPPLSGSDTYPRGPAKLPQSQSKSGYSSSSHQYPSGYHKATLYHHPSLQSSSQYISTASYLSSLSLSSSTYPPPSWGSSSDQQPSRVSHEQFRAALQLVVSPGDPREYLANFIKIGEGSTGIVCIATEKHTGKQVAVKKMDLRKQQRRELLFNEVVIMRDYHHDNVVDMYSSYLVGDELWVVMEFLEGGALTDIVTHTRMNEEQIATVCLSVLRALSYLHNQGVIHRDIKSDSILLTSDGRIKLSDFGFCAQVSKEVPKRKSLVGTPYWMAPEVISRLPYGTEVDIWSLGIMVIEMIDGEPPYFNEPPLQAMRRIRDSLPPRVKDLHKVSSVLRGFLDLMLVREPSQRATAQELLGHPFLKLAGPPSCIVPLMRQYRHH
Sequence of off-target kinases (Homo sapiens, UniProt O75582) (O75582 whole entry): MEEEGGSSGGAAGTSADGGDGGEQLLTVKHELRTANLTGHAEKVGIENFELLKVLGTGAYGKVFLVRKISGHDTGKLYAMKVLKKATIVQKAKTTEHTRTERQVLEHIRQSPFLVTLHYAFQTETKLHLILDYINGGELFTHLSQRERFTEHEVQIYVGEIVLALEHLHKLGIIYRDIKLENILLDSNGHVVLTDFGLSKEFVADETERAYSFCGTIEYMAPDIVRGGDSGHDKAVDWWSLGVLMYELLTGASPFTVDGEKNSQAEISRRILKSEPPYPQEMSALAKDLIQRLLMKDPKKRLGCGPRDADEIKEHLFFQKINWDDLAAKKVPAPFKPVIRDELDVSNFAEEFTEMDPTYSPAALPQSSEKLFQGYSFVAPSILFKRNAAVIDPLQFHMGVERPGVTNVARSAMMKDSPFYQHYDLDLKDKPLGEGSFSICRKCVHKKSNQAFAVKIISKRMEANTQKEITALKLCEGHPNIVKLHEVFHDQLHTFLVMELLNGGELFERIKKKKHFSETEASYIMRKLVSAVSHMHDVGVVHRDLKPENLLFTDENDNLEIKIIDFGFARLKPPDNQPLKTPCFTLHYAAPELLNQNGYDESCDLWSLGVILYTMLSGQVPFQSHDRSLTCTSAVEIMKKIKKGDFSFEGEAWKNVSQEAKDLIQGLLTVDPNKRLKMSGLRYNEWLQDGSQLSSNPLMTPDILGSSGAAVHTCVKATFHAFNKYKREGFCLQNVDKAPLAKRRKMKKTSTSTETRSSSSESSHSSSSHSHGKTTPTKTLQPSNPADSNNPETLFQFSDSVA
Sequence of off-target kinases (Homo sapiens, UniProt P45983) (P45983 whole entry): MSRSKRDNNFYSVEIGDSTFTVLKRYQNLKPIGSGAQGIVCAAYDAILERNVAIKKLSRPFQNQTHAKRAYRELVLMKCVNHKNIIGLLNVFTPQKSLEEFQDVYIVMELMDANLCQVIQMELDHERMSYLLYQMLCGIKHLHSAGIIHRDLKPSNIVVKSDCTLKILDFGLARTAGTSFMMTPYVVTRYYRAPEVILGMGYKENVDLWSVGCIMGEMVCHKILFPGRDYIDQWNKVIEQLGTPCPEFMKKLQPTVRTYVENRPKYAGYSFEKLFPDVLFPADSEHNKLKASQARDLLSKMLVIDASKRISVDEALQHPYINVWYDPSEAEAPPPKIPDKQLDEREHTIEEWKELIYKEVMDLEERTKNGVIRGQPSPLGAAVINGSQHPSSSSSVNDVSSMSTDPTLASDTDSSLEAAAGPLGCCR

For `N#Cc1cc(-c2ncnc(Nc3ccc(N4CCN(C5COC5)CC4)cc3)n2)ccc1OC1CCOCC1` [Compound 1, 5-(4-((4-(4-(oxetan-3-yl)piperazin-1-yl)phenyl)amino)-1,3,5-triazin-2-yl)-2-((tetrahydro-2H-pyran-4-yl)oxy)benzonitrile], the inhibition (off-target kinases [1]; read-out: % Inhibition 1) was 2%, the inhibition (off-target kinases [1]; read-out: % Inhibition 2) was 5% and the inhibition (off-target kinases [1]; read-out: % Inhibition Avg) was 3%. It also gave an inhibition (off-target kinases [2]; LanthaScreen Binding, read-out: % Inhibition 1) of 57%, an inhibition (off-target kinases [2]; LanthaScreen Binding, read-out: % Inhibition 2) of 56% and an inhibition (off-target kinases [2]; LanthaScreen Binding, read-out: % Inhibition Avg) of 57%. For the same compound, the inhibition (off-target kinases [2]; ZLYTE, ATP 100, read-out: % Inhibition 1) was 33%, the inhibition (off-target kinases [2]; ZLYTE, ATP 100, read-out: % Inhibition 2) was 18% and the inhibition (off-target kinases [2]; ZLYTE, ATP 100, read-out: % Inhibition Avg) was 25%. The inhibition (off-target kinases [3]; read-out: % Inhibition 1) was 77%, the inhibition (off-target kinases [3]; read-out: % Inhibition 2) was 79% and the inhibition (off-target kinases [3]; read-out: % Inhibition Avg) was 78%. The inhibition (off-target kinases [4]; read-out: % Inhibition 1) was 4%, the inhibition (off-target kinases [4]; read-out: % Inhibition 2) was 4% and the inhibition (off-target kinases [4]; read-out: % Inhibition Avg) was 4%. The inhibition (off-target kinases [5]; read-out: % Inhibition 1) was 6%, the inhibition (off-target kinases [5]; read-out: % Inhibition 2) was 3% and the inhibition (off-target kinases [5]; read-out: % Inhibition Avg) was 4%. It also gave an inhibition (off-target kinases [6]; read-out: % Inhibition 1) of 7%, an inhibition (off-target kinases [6]; read-out: % Inhibition 2) of 9% and an inhibition (off-target kinases [6]; read-out: % Inhibition Avg) of 8%.
